Key:
Assay type in all cases: in vivo
Phaedon cochleariae = Phaedon cochleariae spray test (Example D, Chinese cabbage leaf-disks); settings: mortality after 6 d
Experimental: Phaedon cochleariae—Spray Test
Solvent: 78.0 parts by weight of acetone • • 1.5 parts by weight of dimethylformamide Emulsifier: 0.5 parts by weight of alkylaryl polyglycolether
(§1) To produce a suitable preparation of active compound, 1 part by weight of active compound is mixed with the stated amount of solvent and emulsifier, and the concentrate is diluted with emulsifier-containing water to the desired concentration. To produce a suitable preparation of a spore suspension the spores are diluted with emulsifier-containing water to the desired concentration.
Chinese cabbage (Brassica pekinensis) leaf-disks are sprayed with a preparation of the active ingredient of the desired concentration. Once dry, the leaf disks are infested with mustard beetle larvae (Phaedon cochleariae).
After the specified period of time, mortality in % is determined 100% means all beetle larvae have been killed and 0% means none of the beetle larvae have been killed. The mortality values determined thus are recalculated using the Colby-formula (see above).

Myzus persicae [1] = experiment: Myzus persicae spray test (Example A, pepper leaves); settings: for Efficacy in % after 5 d: mortality after 5 d; for Efficacy in % after 4 d: mortality after 4 d
Experimental: (§2) Myzus persicae—Spray Test
(§3) Solvent: 7 parts by weight of dimethylformamide Emulsifier: 2 parts by weight of alkylaryl polyglycolether
(§4) To produce a suitable preparation of active compound, 1 part by weight of active compound is mixed with the stated amount of solvent and emulsifier, and the concentrate is diluted with emulsifier-containing water to the desired concentration. To produce a suitable preparation of a spore suspension the spores are diluted with emulsifier-containing water to the desired concentration Ammonium salt and/or penetration enhancer in a dosage of 1000 ppm are added to the desired concentration, if necessary.
Pepper leaves (Capsicum annuum) which are heavily infested by the green peach aphid (Myzus persicae) are treated by being sprayed with the preparation of the active compound of the desired concentration.
After the specified period of time, mortality in % is determined 100% means all the aphids have been killed; 0% means none of the aphids have been killed. The mortality values determined thus are recalculated using the Colby-formula (see above).

Aphis gossypii = Aphis gossypii spray test (Example B, cotton leaves); settings: mortality after 1 d
Experimental: Aphis gossypii—Spray Test
as §3, §4
Cotton leaves (Gossypium hirsutum) which are heavily infested by the cotton aphid (Aphis gossypii) are treated by being sprayed with the preparation of the active compound of the desired concentration.
After the specified period of time, the mortality in % is determined 100% means all the aphids have been killed; 0% means none of the aphids have been killed. The mortality values determined thus are recalculated using the Colby-formula (see above).

Myzus persicae [2] = experiment: Myzus persicae spray test (Example G, Chinese cabbage leaf-disks); settings: for Efficacy in % after 6 d: mortality after 6 d; for Efficacy in % after 1 d: mortality after 1 d
Experimental: as §2
(§5) Solvent: 78.0 parts by weight acetone • 1.5 parts by weight dimethylformamide Emulsifier: 0.5 parts by weight alkylarylpolyglycolether
as §1
Chinese cabbage (Brassica pekinensis) leaf—disks infected with all instars of the green peach aphid (Myzus persicae) are sprayed with a preparation of the active ingredient of the desired concentration.
After the specified period of time, mortality in % is determined 100% means all aphids have been killed; 0% means none of the aphids have been killed. The mortality values determined thus are recalculated using the Colby-formula (see above).

Tetranychus urticae [3] = experiment: Tetranychus urticae spray test, OP-resistant (Example H, French beans); settings: for Efficacy in % after 6 d: mortality after 6 d; for Efficacy in % after 2 d: mortality after 2 d
Experimental: (§6) Tetranychus urticae—Spray Test, OP-Resistant
as §5, §1
French beans (Phaseolus vulgaris) which are heavily infested with all stages of the two spotted spidermite (Tetranychus urticae), are sprayed with a preparation of the active ingredient of the desired concentration.
After the specified period of time, mortality in % is determined 100% means all spider mites have been killed and 0% means none of the spider mites have been killed. The mortality values determined thus are recalculated using the Colby-formula (see above).

Spodoptera frugiperda [4] = experiment: Spodoptera frugiperda test (SPODFR) (Example F, maize leaves); settings: 0.075 g ai/ha; mortality after 3 d
Experimental: Spodoptera frugiperda—Test (SPODFR)
Solvent: 7 parts by weight of dimethylformamide Emulsifier: 1 part by weight of alkylaryl polyglycolether
as §4, with “concentration” for “concentration,”
Maize leaves (Zea mais) are treated by being sprayed with the preparation of the active compound of the desired concentration and are infested with caterpillars of the fall army worm (Spodoptera frugiperda). The mortality values determined thus are recalculated using the Colby-formula (see above).
After the specified period of time, mortality in % is determined 100% means all the caterpillars have been killed; 0% means none of the caterpillars have been killed.

Tetranychus urticae [5] = experiment: Tetranychus urticae spray test, OP-resistant (Example C, bean plants); settings: 0.8 ppm; mortality after 6 d
Experimental: as §6, §3
as §4, with “concentration” for “concentration,”
Bean plants (Phaseolus vulgaris) which are heavily infested with all stages of the two-spotted spider mite (Tetranychus urticae) are treated by being sprayed with the preparation of the active compound of the desired concentration.
After the specified period of time, mortality in % is determined 100% means all the spider mites have been killed; 0% means none of the spider mites have been killed. The mortality values determined thus are recalculated using the Colby-formula (see above).

Spodoptera frugiperda [6] = experiment: Spodoptera frugiperda spray test (Example E, maize leaf sections); settings: 0.032 g ai/ha; mortality after 6 d
Experimental: Spodoptera frugiperda—Spray Test
as §5
as §1, with “preparation of the active compound,” for “preparation of active compound,”, “preparation of spore suspension” for “preparation of a spore suspension”
Maize (Zea mais) leaf sections are sprayed with a preparation of the active ingredient of the desired concentration. Once dry, the leaf sections are infested with fall armyworm larvae (Spodoptera frugiperda).
After the specified period of time, mortality in % is determined 100% means all caterpillars have been killed and 0% means none of the caterpillars have been killed. The mortality values determined thus are recalculated using the Colby-formula (see above).

## Cc1c(F)c(F)c(COC(=O)[C@@H]2[C@H](/C=C(\Cl)C(F)(F)F)C2(C)C)c(F)c1F (racemic) [Tefluthrin]
Phaedon cochleariae; 10 g ai/ha
  Efficacy in % after 6 d: 0%

## CNC(=O)c1cc(Cl)cc(C)c1NC(=O)c1cc(Br)nn1-c1ncccc1Cl [Chlorantraniliprole]
Myzus persicae [1]; 8 ppm
  Efficacy in % after 5 d: 60%
Aphis gossypii; 4 ppm
  Efficacy in % after 1 d: 10%
Aphis gossypii; 8 ppm
  Efficacy in % after 1 d: 50%

## CN/C(=N\[N+](=O)[O-])NCc1cnc(Cl)s1 [Clothianidin]
Myzus persicae [1]; 0.125 ppm
  Efficacy in % after 4 d: 3%
Myzus persicae [1]; 0.25 ppm
  Efficacy in % after 4 d: 10%
Myzus persicae [1]; 0.5 ppm
  Efficacy in % after 4 d: 65%
Aphis gossypii; 0.25 ppm
  Efficacy in % after 1 d: 3%
Aphis gossypii; 0.5 ppm
  Efficacy in % after 1 d: 8%
Phaedon cochleariae; 20 g ai/ha
  Efficacy in % after 6 d: 50%

## CNC(=O)c1cc(C#N)cc(C)c1NC(=O)c1cc(Br)nn1-c1ncccc1Cl [Cyantraniliprole]
Phaedon cochleariae; 0.8 g ai/ha
  Efficacy in % after 6 d: 0%
Myzus persicae [2]; 0.8 g ai/ha
  Efficacy in % after 6 d: 0%

## CC1(C)[C@H](C(=O)O[C@H](C#N)c2cccc(Oc3ccccc3)c2)[C@@H]1C=C(Br)Br [Deltamethrin]
Tetranychus urticae [3]; 4 g ai/ha
  Efficacy in % after 6 d: 0%

## N#Cc1nn(-c2c(Cl)cc(C(F)(F)F)cc2Cl)c(N)c1[S+]([O-])C(F)(F)F (centres unmarked) [Fipronil]
Myzus persicae [2]; 100 g ai/ha
  Efficacy in % after 6 d: 0%
Tetranychus urticae [3]; 100 g ai/ha
  Efficacy in % after 6 d: 0%

## Cc1cc(C(F)(C(F)(F)F)C(F)(F)F)ccc1NC(=O)c1cccc(I)c1C(=O)NC(C)(C)CS(C)(=O)=O [Flubendiamide]
Spodoptera frugiperda [4]
  Efficacy in % after 3 d: 18%

## O=C1C=C(N(Cc2ccc(Cl)nc2)CC(F)F)CO1 [Flupyradifurone]
Myzus persicae [2]; 0.8 g ai/ha
  Efficacy in % after 6 d: 0%

## Cc1cc(F)c(-n2nc(C(F)(F)F)nc2N)cc1[S+]([O-])CC(F)(F)F (centres unmarked) [I277, 1-{2-fluoro-4-methyl-5-[(2,2,2-trifluorethyl)sulfinyl]phenyl}-3-(trifluoromethyl)-1H-1,2,4-triazol-5-amine]
Tetranychus urticae [5]
  Efficacy in % after 6 d: 25%
Tetranychus urticae [3]; 4 g ai/ha
  Efficacy in % after 6 d: 70%

## O=[N+]([O-])NC1=NCCN1Cc1ccc(Cl)nc1 [Imidacloprid]
Myzus persicae [2]; 0.16 g ai/ha
  Efficacy in % after 1 d: 70%

## CNC(=O)Oc1cc(C)c(SC)c(C)c1 [Methiocarb]
Myzus persicae [2]; 500 g ai/ha
  Efficacy in % after 6 d: 0%
Tetranychus urticae [3]; 100 g ai/ha
  Efficacy in % after 6 d: 20%

## Cc1cc(C)c(C2=C(OC(=O)CC(C)(C)C)C3(CCCC3)OC2=O)c(C)c1 [Spiromesifen]
Tetranychus urticae [3]; 0.8 g ai/ha
  Efficacy in % after 6 d: 30%

## CCOC(=O)OC1=C(c2cc(C)ccc2C)C(=O)N[C@]12CC[C@@H](OC)CC2 [Spirotetramat]
Myzus persicae [2]; 0.8 g ai/ha
  Efficacy in % after 6 d: 0%
Tetranychus urticae [3]; 0.8 g ai/ha
  Efficacy in % after 6 d: 0%

## CC(c1ccc(C(F)(F)F)nc1)S(C)(=O)=NC#N (centres unmarked) [Sulfoxaflor]
Myzus persicae [2]; 0.16 g ai/ha
  Efficacy in % after 6 d: 70%

## N#C/N=C1\SCCN1Cc1ccc(Cl)nc1 [Thiacloprid]
Myzus persicae [2]; 0.16 g ai/ha
  Efficacy in % after 6 d: 0%

## CN1COCN(Cc2cnc(Cl)s2)/C1=N\[N+](=O)[O-] [Thiamethoxam]
Myzus persicae [2]; 0.8 g ai/ha
  Efficacy in % after 1 d: 70%

## CS/C(C)=N\OC(=O)N(C)SN(C)C(=O)O/N=C(\C)SC [Thiodicarb]
Myzus persicae [2]; 100 g ai/ha
  Efficacy in % after 6 d: 0%

## CC1(C)C(C=C(Cl)Cl)C1C(=O)OC(C#N)c1ccc(F)c(Oc2ccccc2)c1 (stereo not drawn) [β-Cyfluthrin, beta-Cyfluthrin]
Myzus persicae [2]; 0.16 g ai/ha
  Efficacy in % after 6 d: 0%
Tetranychus urticae [3]; 4 g ai/ha
  Efficacy in % after 6 d: 0%

## Abamectin
Myzus persicae [1]; 2 ppm
  Efficacy in % after 5 d: 30%

## Spinetoram
Spodoptera frugiperda [6]
  Efficacy in % after 6 d: 33%
Tetranychus urticae [3]; 4 g ai/ha
  Efficacy in % after 2 d: 20%

## Spinosad
Tetranychus urticae [3]; 4 g ai/ha
  Efficacy in % after 2 d: 0%

— patent US20150296773A1, “COMPOSITIONS COMPRISING A […] MIXTURE AND AN INSECTICIDE” (Bayer CropScience AG, priority 2012, published 2015)
